Results on one molecule are retold here after patent US7371780B2, “Use of calphostin C to treat drug-resistant tumor cells” (priority 2003, dated 2008).

Data set [1] deals with MCF-7DOX cells. In words: Flow cytometric sub-G1 DNA content, MCF-7DOX. It is filed as cell-based, human. Conditions: 100 nM calphostin C. How it is done:
For flow cytometric analysis, cells at about 50% to 60% confluence were released from their flasks by trypsin treatment and washed with PBS. After centrifugation at 1000 rpm for 5 min, cells were then fixed by resuspension in 75% ethanol for 2 hours, collected by centrifugation, and resuspended in PI staining solution (see above) for 1 h. For each sample, approximately 2×10^4 cells were analyzed using a Beckman Coulter Epics® Elite flow cytometer. Fluorescence intensity upon stimulation with an argon-ion laser at 488 nm was measured using the PMT4 channel (625DL filter) and plotted against cell number. The percentage of cells with a sub-G1 DNA content was determined by the flow cytometer, adjusting the gates such that only cells with a fluorescence lower than the peak for untreated cells in G1 are counted (see FIG. 4).
In general terms: In flow cytometry, cells or beads pass a laser one at a time.

Data set [2] has as its system caspase-8, PARP and cytochrome C in MCF-7 cells. Description: Immunoblotting of apoptosis markers, MCF-7. It is filed as cell-based, human. How it is done: (§1) For preparation of mitochondrial and cytoplasmic cellular fractions, MCF-7, MCF-7TAX, and MCF-7DOX cells were grown in a monolayer to 70-90% confluence on 10 cm tissue culture plates. Twenty-four hours prior to extraction, the cells were treated with 50 nM light-activated calphostin C as described above. After this treatment, the cells were trypsinized, centrifuged at 1000 rpm in a Beckman GP centrifuge and washed with PBS. To the resulting cell pellet, 1 ml of ice-cold homogenization (HM) buffer was added. This buffer consisted of 85.55 g sucrose, 1.406 g MOPS, 0.292 g EDTA, and 1 ml ethanol per liter of solution, with a final pH of 7.2. Prior to use, 0.2 ml of 0.1 M PMSF, 1 Complete™ protease inhibitor tablet (Roche Diagnostics, Laval, QC), and 20 μl of 1 M DTT was added for 100 ml of HM buffer. Cells were then lysed 10 times by homogenization in a 2 ml dounce homogenizer. Nuclei in the lysate were then pelleted by centrifugation in a microfuge tube at 70 g for 10 minutes at 4° C. and the supernatant carefully removed. The supernatant was clarified by centrifugation at 1950 g for 10 minutes at 4° C. and the pellet (containing mitochondria) was resuspended in 50 μl of HM buffer. The remaining clarified supernatant was deemed the cytoplasmic fraction. […]
Background: Immunoblotting shows a protein as a band on a membrane.

The subject of data set [3] is caspase-8, PARP and cytochrome C in MCF-7TAX cells. In words: Immunoblotting of apoptosis markers, MCF-7TAX. It is filed as cell-based, human. The protocol:
as §1

Another data set has as its system MCF-7 cells. In words: Drug uptake (flow cytometry / scintillation counting), MCF-7. It is filed as cell-based, human. To be noted: 100 nM calphostin C. The protocol:
(§2) FIG. 5 illustrates the effect of calphostin C (Cal-C) on drug uptake in MCF-7 (square symbols), MCF-7TAX (diamond symbols) and MCF-7DOX (triangular symbols) cells. After one-day growth, the cells were left untreated (closed symbols) or treated with 100 nM calphostin C for 2 h with light activation (open symbols). Cells were then washed and the medium replaced with medium containing 2 μM of doxorubicin (A) or [^3H]-paclitaxel (B). The cells were then trypsinized and drug accumulation measured by flow cytometry (A) or liquid scintillation counting (B) at indicated time points. The figures are representative of three independent experiments.

The subject of a further data set is MCF-7TAX cells. Description: Drug uptake, MCF-7TAX. The data set is classed as cell-based, human. How it is done: as §2
Data set [4] deals with MCF-7DOX cells. Description: Drug uptake, MCF-7DOX. It is filed as cell-based, human. How it is done: as §2
In data set [5] the test system is MDA-MB231 human breast cancer cells. In words: Death and cytoplasmic vacuolization, MDA-MB231. Conditions: data not shown. The data set is classed as cell-based.
In data set [6] the test system is mouse B16BL6 melanoma cells. Description: Death and cytoplasmic vacuolization, B16BL6. The data set is classed as cell-based. To be noted: data not shown.
For data set [7] the following is noted: mice, cited from earlier work.
Where [8] appears, read: light-activated calphostin C, whole cell extracts.
The mark [9] stands for this setting: mitochondrial and cytoplasmic fractions.
Where [10] appears, read: 100 nM calphostin C 2 h with light, then 2 μM doxorubicin.

As to `COc1c(C[C@@H](C)OC(=O)Oc2ccc(O)cc2)c2c3c(C[C@@H](C)OC(=O)c4ccccc4)c(OC)c(=O)c4c(O)cc(OC)c(c5c(OC)cc(O)c(c1=O)c52)c43` [calphostin C], the “time of strong increase in percentage of sub-G1 cells after treatment” value with MCF-7DOX cells [1] (MCF-7ADR (so in the source), 2 h light) came to 8 h. Moreover, the “percentage of cells with sub-G1 DNA content versus similarly treated MCF-7 or MCF-7TAX cells” value with MCF-7DOX cells [1] (MCF-7DOX) is listed as “significantly lower”. In addition, the “caspase-8 and PARP cleavage (protein levels)” value in data set [2] (setting [8]) and in data set [3] (setting [8]) was “did not result in any change” in each case. Besides, the “release of cytochrome C from mitochondria” value in [2] (setting [9]) and in data set [3] (setting [9]) was “no clear evidence for the release of cytochrome C” each time. Besides, the “effect on paclitaxel accumulation” value with MCF-7 cells is listed as “decreased paclitaxel accumulation”. In addition, the “effect on doxorubicin uptake” value in the data set on MCF-7TAX cells (setting [10]) and in the data set on MCF-7DOX cells [4] (setting [10]) was “little ability to re-establish doxorubicin uptake” throughout. For the same molecule, the “effect on paclitaxel uptake” value in the data set on MCF-7TAX cells (100 nM calphostin C, early time points, back to control by 18 hours) is recorded as “slightly restored”; in the data set with MCF-7DOX cells [4] (100 nM calphostin C), “little effect”. For the same molecule, the “induction of death and cytoplasmic vacuolization” value in data set [5] was “induce both death and cytoplasmic vacuolization”; in data set [6] it was “induce both death and cytoplasmic vacuolization”. In addition, the “clearance rate t1/2” value in data set [7] (40 mg/kg) was 1.52 h. Moreover, the “plasma concentration reached without significant cytotoxicity” value in data set [7] is 2900 nM.
